Reference: patent publication US8476197B2, “Aminopropenoates as fungicides” (priority 2009, dated 2013)
Marks after values point to notes of the source that are not given here.

Conditions: pH 2.7

Row | Log P | Structure (SMILES)
1 | 3.48^[a] | CCOC(=O)C(C#N)=C(Nc1ccccc1SC)c1cn(C)nc1C(F)(F)F [Compound 431]
2 | 3.8^[a] | CCOC(=O)C(C#N)=C(Nc1ccccc1SC)c1sc(C)nc1C(F)(F)F [Compound 432]
3 | 4.27^[a] | CCOC(=O)C(C#N)=C(NC(C)c1ccc(Cl)cc1)c1sc(C)nc1C(F)(F)F (stereo not drawn) [Compound 433]
4 | 4.4^[a] | CCOC(=O)C(C#N)=C(NC(C)c1ccc(Cl)cc1)c1sccc1Cl (stereo not drawn) [Compound 434]
5 | 3.92^[a] | CCOC(=O)C(C#N)=C(Nc1ccccc1SC)c1sccc1Cl [Compound 435]
6 | 3.94^[a] | CCOC(=O)C(C#N)=C(Nc1ccccc1SC)c1ccsc1I [Compound 436]
7 | 4.11^[a] | CCOC(=O)C(C#N)=C(Nc1ccc(Cl)cc1)c1sccc1Br [Compound 457]
8 | 4.01^[a] | CCOC(=O)C(C#N)=C(NCc1ccccc1SC)c1sccc1Br [Compound 458]
9 | 4.09^[a] | CCOC(=O)C(C#N)=C(Nc1cccc(Cl)c1)c1sccc1Br [Compound 459]
10 | 4.54^[a] | CCOC(=O)C(C#N)=C(Nc1ccccc1OC(C)C)c1sccc1C(F)(F)F [Compound 460]
11 | 4.09^[a] | CCOC(=O)C(C#N)=C(Nc1ccc(SC)cc1)c1sccc1C(F)(F)F [Compound 462]
12 | 4.09^[a] | CCOC(=O)C(C#N)=C(NCc1ccccc1SC)c1sccc1C(F)(F)F [Compound 463]
13 | 3.87^[a] | CCOC(=O)C(C#N)=C(NCc1ccccc1SC)c1sc(C)nc1C(F)(F)F [Compound 464]
14 | 3.55^[a] | COC(=O)C(C#N)=C(NCc1ccccc1SC)c1sc(C)nc1C(F)(F)F [Compound 466]
15 | 4.46^[a] | CCOC(=O)C(C#N)=C(Nc1ccccc1OC(C)C)c1sccc1Br [Compound 467]
16 | 4.01^[a] | CCOC(=O)C(C#N)=C(Nc1ccc(SC)cc1)c1sccc1Br [Compound 470]
17 | 3.23^[a] | CCOC(=O)C(C#N)=C(Nc1ccc(Cl)cc1)c1cn(C)nc1C(F)F [Compound 475]

Row | Log P | Structure (SMILES)
18 | 3.87^[a] | CCOC(=O)C(C#N)=C(Nc1ccc(SC)cc1)c1sc(C)nc1C(F)(F)F [Compound 480]
19 | 4.04^[a] | CCOC(=O)C(C#N)=C(Nc1cccc(SC)c1)c1sccc1C(F)(F)F [Compound 482]
20 | 3.62^[a] | CCOC(=O)C(C#N)=C(Nc1ccc(OC)cc1)c1sccc1C(F)(F)F [Compound 483]
21 | 3.55^[a] | CCOC(=O)C(C#N)=C(Nc1ccc(OC)cc1)c1sccc1Br [Compound 488]
22 | 4.73^[a] | CCOC(=O)C(C#N)=C(Nc1ccc(C(C)C)cc1)c1sccc1Br [Compound 490]
23 | 3.96^[a] | CCOC(=O)C(C#N)=C(Nc1cccc(SC)c1)c1sccc1Br [Compound 491]
24 | 4.54^[a] | CCOC(=O)C(C#N)=C(Nc1ccc(C(C)C)cc1)c1sc(C)nc1C(F)(F)F [Compound 494]
25 | 3.17^[a] | CCOC(=O)C(C#N)=C(Nc1cccc(SC)c1)c1cn(C)nc1C(F)F [Compound 498]
26 | 4.59^[a] | CCOC(=O)C(C#N)=C(Nc1ccccc1SC)c1cc(Cl)sc1Cl [Compound 500]
27 | 3.99^[a] | CCOC(=O)C(C#N)=C(Nc1ccccc1SC)c1nc(Cl)ccc1Cl [Compound 502]
28 | 4.09^[a] | CCOC(=O)C(C#N)=C(Nc1ccccc1SC)c1ncc(Cl)cc1Cl [Compound 503]
29 | 3.89^[a] | CCOC(=O)C(C#N)=C(Nc1cccc(SC)c1)c1sc(C)nc1C(F)(F)F [Compound 505]
30 | 3.06^[a] | CCOC(=O)C(C#N)=C(Nc1ccccc1SC)c1cn(C)nc1OC [Compound 507]
31 | 4.14^[a] | CCOC(=O)C(C#N)=C(Nc1ccc(Cl)cc1)c1sccc1C(F)(F)F [Compound 510]
32 | 4.14 | CCOC(=O)C(C#N)=C(Nc1cccc(Cl)c1)c1sccc1C(F)(F)F [Compound 511]
33 | 3.92^[a] | CCOC(=O)C(C#N)=C(Nc1ccc(Cl)cc1)c1sc(C)nc1C(F)(F)F [Compound 512]

The next lines start with the compound.

Row | Structure (SMILES) | Log P
34 | CCOC(=O)C(C#N)=C(NC(C)CCc1ccccc1)c1sccc1C(F)(F)F (stereo not drawn) [Compound 437] | 4.56^[a]
35 | CCOC(=O)C(C#N)=C(Nc1ccc(OC(F)F)cc1)c1sccc1C(F)(F)F [Compound 461] | 3.78^[a]
36 | COC(=O)C(C#N)=C(Nc1ccc2ncsc2c1)c1sc(C)nc1C(F)(F)F [Compound 465] | 2.64^[a]
37 | CCOC(=O)C(C#N)=C(Nc1ccc(OC(F)F)cc1)c1sccc1Br [Compound 468] | 3.73^[a]
38 | CCOC(=O)C(C#N)=C(Nc1ccc2ncsc2c1)c1sccc1Br [Compound 469] | 3.09^[a]
39 | CCOC(=O)C(C#N)=C(Nc1ccccc1OC(C)C)c1cn(C)nc1C(F)F [Compound 471] | 3.53^[a]
40 | CCOC(=O)C(C#N)=C(Nc1ccc(OC(F)F)cc1)c1cn(C)nc1C(F)F [Compound 472] | 3.04^[a]
41 | CCOC(=O)C(C#N)=C(Nc1ccc2ncsc2c1)c1cn(C)nc1C(F)F [Compound 473] | 2.44^[a]
42 | CCOC(=O)C(C#N)=C(Nc1ccc(SC)cc1)c1cn(C)nc1C(F)F [Compound 474] | 3.19^[a]
43 | CCOC(=O)C(C#N)=C(NCc1ccccc1SC)c1cn(C)nc1C(F)F [Compound 476] | 3.17^[a]
44 | CCOC(=O)C(C#N)=C(Nc1cccc(Cl)c1)c1cn(C)nc1C(F)F [Compound 477] | 3.21^[a]
45 | CCOC(=O)C(C#N)=C(Nc1ccc2ncsc2c1)c1sc(C)nc1C(F)(F)F [Compound 479] | 2.98^[a]
46 | CCOC(=O)C(C#N)=C(Nc1ccc(C(C)C)cc1)c1sccc1C(F)(F)F [Compound 481] | 4.75^[a]
47 | CCOC(=O)C(C#N)=C(Nc1ccc(N(C)C)cc1)c1sccc1C(F)(F)F [Compound 484] | 3.89^[a]
48 | COC(=O)C(C#N)=C(Nc1ccc(OC)cc1)c1sc(C)nc1C(F)(F)F [Compound 485] | 3.06^[a]
49 | COC(=O)C(C#N)=C(Nc1ccc(N(C)C)cc1)c1sc(C)nc1C(F)(F)F [Compound 486] | 3.31^[a]
50 | COC(=O)C(C#N)=C(Nc1ccc(C(C)C)cc1)c1sc(C)nc1C(F)(F)F [Compound 487] | 4.14^[a]
51 | CCOC(=O)C(C#N)=C(Nc1ccc(N(C)C)cc1)c1sccc1Br [Compound 489] | 3.76^[a]
52 | CCOC(=O)C(C#N)=C(Nc1ccc(OC)cc1)c1sc(C)nc1C(F)(F)F [Compound 492] | 3.44^[a]
53 | CCOC(=O)C(C#N)=C(Nc1ccc(N(C)C)cc1)c1sc(C)nc1C(F)(F)F [Compound 493] | 3.71^[a]
54 | CCOC(=O)C(C#N)=C(Nc1ccc(OC)cc1)c1cn(C)nc1C(F)F [Compound 495] | 2.77^[a]
55 | CCOC(=O)C(C#N)=C(Nc1ccc(N(C)C)cc1)c1cn(C)nc1C(F)F [Compound 496] | 2.71^[a]
56 | CCOC(=O)C(C#N)=C(Nc1ccc(C(C)C)cc1)c1cn(C)nc1C(F)F [Compound 497] | 3.76^[a]
57 | CCOC(=O)C(C#N)=C(NC1(c2c(F)cccc2F)CC1)c1cc(Cl)sc1Cl [Compound 501] | 4.62^[a]
58 | COC(=O)C(C#N)=C(Nc1cccc(SC)c1)c1sc(C)nc1C(F)(F)F [Compound 504] | 3.53^[a]
59 | CCOC(=O)C(C#N)=C(NC1(c2c(F)cccc2F)CC1)c1cn(C)nc1OC [Compound 508] | 3.02^[a]
60 | CCOC(=O)C(C#N)=C(Nc1ccc2ncsc2c1)c1sccc1C(F)(F)F [Compound 509] | 3.21^[a]
